Assay results: patent publication US10442807B2, “Aryl substituted bicyclic compounds as herbicides” (FMC Corporation, priority 2015, dated 2019)

Legend:
Format in all cases: in vivo
[1] = test system: barnyardgrass (Echinochloa crus-galli); assay: Test A preemergence, directed soil spray, visual injury rating; conditions: approx. 10 d, 0 = no effect, 100 = complete control
Source text: (§1) Seeds of plant species selected from barnyardgrass (Echinochloa crus-galli), kochia (Kochia scoparia), ragweed (common ragweed, Ambrosia elation), ryegrass, Italian (Italian ryegrass, Lolium multiflorum), foxtail, giant (giant foxtail, Setaria faberii), and pigweed (Amaranthus retroflexus), were planted into a blend of loam soil and sand and treated preemergence with a directed soil spray using test chemicals formulated in a non-phytotoxic solvent mixture which included a surfactant. At the same time, plants selected from these weed species and also blackgrass (Alopecurus myosuroides), galium (catchweed bedstraw, Galium aparine), wheat (Triticum aestivum), and corn (Zea mays) were planted in pots containing the same blend of loam soil and sand and treated with postemergence applications of test chemicals formulated in the same manner. Plants ranged in height from 2 to 10 cm and were in the one- to two-leaf stage for the postemergence treatment. Treated plants and untreated controls were maintained in a greenhouse for approximately 10 d, after which time all treated plants were compared to untreated controls and visually evaluated for injury. Plant response ratings, summarized in Table A, are based on a 0 to 100 scale where 0 is no effect and 100 is complete control. A dash (-) response means no test result.

[2] = test system: ryegrass, Italian (Italian ryegrass, Lolium multiflorum); assay: as above; conditions: approx. 10 d, 0 = no effect, 100 = complete control
Source text: as §1

[3] = test system: foxtail, giant (giant foxtail, Setaria faberii); assay: as above; conditions: approx. 10 d, 0 = no effect, 100 = complete control
Source text: as §1

kochia (Kochia scoparia) [4] = assay: as above; conditions: approx. 10 d, 0 = no effect, 100 = complete control
Source text: as §1

[5] = test system: pigweed (Amaranthus retroflexus); assay: as above; conditions: approx. 10 d, 0 = no effect, 100 = complete control
Source text: as §1

[6] = test system: ragweed (common ragweed, Ambrosia elation); assay: as above; conditions: approx. 10 d, 0 = no effect, 100 = complete control
Source text: as §1

[7] = test system: barnyardgrass (Echinochloa crus-galli); assay: Test B flooded paddy test, visual plant response rating; conditions: 250 g ai/ha; applied to paddy water at 2-leaf stage; rated after 13 to 15 days; scale 0 to 100, 0 is no effect, 100 is complete control
Source text: (§2) At time of treatment, test pots were flooded to 3 cm above the soil surface, treated by application of test compounds directly to the paddy water, and then maintained at that water depth for the duration of the test. Treated plants and controls were maintained in a greenhouse for 13 to 15 days, after which time all species were compared to controls and visually evaluated. Plant response ratings, summarized in Table B, are based on a scale of 0 to 100 where 0 is no effect and 100 is complete control. A dash (-) response means no test result.

[8] = test system: sedge, umbrella (small-flower umbrella sedge, Cyperus difformis); assay: as above; conditions: 250 g ai/ha; applied to paddy water at 2-leaf stage; rated after 13 to 15 days; scale 0 to 100, 0 is no effect, 100 is complete control
Source text: as §2

[9] = test system: ducksalad (Heteranthera limosa); assay: as above; conditions: 250 g ai/ha; applied to paddy water at 2-leaf stage; rated after 13 to 15 days; scale 0 to 100, 0 is no effect, 100 is complete control
Source text: as §2

rice (Oryza sativa) = assay: as above; conditions: 250 g ai/ha; applied to paddy water at 2-leaf stage; rated after 13 to 15 days; scale 0 to 100, 0 is no effect, 100 is complete control
Source text: as §2

[10] = test system: blackgrass (Alopecurus myosuroides); assay: Test A postemergence application, visual injury rating; conditions: approx. 10 d, 0 = no effect, 100 = complete control
Source text: as §1

[11] = test system: barnyardgrass (Echinochloa crus-galli); assay: as above; conditions: approx. 10 d, 0 = no effect, 100 = complete control
Source text: as §1

[12] = test system: ryegrass, Italian (Italian ryegrass, Lolium multiflorum); assay: as above; conditions: approx. 10 d, 0 = no effect, 100 = complete control
Source text: as §1

[13] = test system: foxtail, giant (giant foxtail, Setaria faberii); assay: as above; conditions: approx. 10 d, 0 = no effect, 100 = complete control
Source text: as §1

kochia (Kochia scoparia) [14] = assay: as above; conditions: approx. 10 d, 0 = no effect, 100 = complete control
Source text: as §1

[15] = test system: wheat (Triticum aestivum); assay: as above; conditions: approx. 10 d, 0 = no effect, 100 = complete control
Source text: as §1

[16] = test system: pigweed (Amaranthus retroflexus); assay: as above; conditions: approx. 10 d, 0 = no effect, 100 = complete control
Source text: as §1

corn (Zea mays) = assay: as above; conditions: approx. 10 d, 0 = no effect, 100 = complete control
Source text: as §1

[17] = test system: ragweed (common ragweed, Ambrosia elation); assay: as above; conditions: approx. 10 d, 0 = no effect, 100 = complete control
Source text: as §1

[18] = test system: galium (catchweed bedstraw, Galium aparine); assay: as above; conditions: approx. 10 d, 0 = no effect, 100 = complete control
Source text: as §1

CCc1ccc(C2Cn3c(C)nnc3C2C(=O)Nc2cccc(F)c2C)cc1 (centres unmarked) [Compound 9] was tested, and the “Barnyardgrass plant response rating (0 to 100 scale)” value (“Barnyardgrass plant response rating” for short) ([1]; 125 g ai/ha) was 40, the “Barnyardgrass plant response rating” value ([1]; 500 g ai/ha) was 70 and the “Ryegrass, Italian plant response rating (0 to 100 scale)” value (“Ryegrass, Italian plant response rating” below) ([2]; 125 g ai/ha) was 0. The “Ryegrass, Italian plant response rating” value ([2]; 500 g ai/ha) was 0, the “Foxtail, Giant plant response rating (0 to 100 scale)” value (shortened to “Foxtail, Giant plant response rating”) ([3]; 125 g ai/ha) was 60 and the “Foxtail, Giant plant response rating” value ([3]; 500 g ai/ha) was 90. The “Kochia plant response rating (0 to 100 scale)” value (from here on “Kochia plant response rating”) (kochia (Kochia scoparia) [4]; 125 g ai/ha) was 0, the “Kochia plant response rating” value (kochia (Kochia scoparia) [4]; 500 g ai/ha) was 0 and the “Pigweed plant response rating (0 to 100 scale)” value (“Pigweed plant response rating” for short) ([5]; 125 g ai/ha) was 0. For the same molecule, the “Pigweed plant response rating” value ([5]; 500 g ai/ha) was 0, the “Ragweed plant response rating (0 to 100 scale)” value (from here on “Ragweed plant response rating”) ([6]; 125 g ai/ha) was 0 and the “Ragweed plant response rating” value ([6]; 500 g ai/ha) was 0. The “Plant response rating, Flood, Barnyardgrass” value [7] was 20, the “Plant response rating, Flood, Sedge, Umbrella” value [8] was 0 and the “Plant response rating, Flood, Ducksalad” value [9] was 75. For the same molecule, the “Plant response rating, Flood, Rice” value (rice (Oryza sativa)) was 15, the “Blackgrass plant response rating (0 to 100 scale)” value (from here on “Blackgrass plant response rating”) ([10]; 125 g ai/ha) was 20 and the “Blackgrass plant response rating” value ([10]; 500 g ai/ha) was 70. The “Barnyardgrass plant response rating” value ([11]; 125 g ai/ha) was 30, the “Barnyardgrass plant response rating” value ([11]; 500 g ai/ha) was 70 and the “Ryegrass, Italian plant response rating” value ([12]; 125 g ai/ha) was 0. For the same molecule, the “Ryegrass, Italian plant response rating” value ([12]; 500 g ai/ha) was 20, the “Foxtail, Giant plant response rating” value ([13]; 125 g ai/ha) was 0 and the “Foxtail, Giant plant response rating” value ([13]; 500 g ai/ha) was 50. For the same molecule, the “Kochia plant response rating” value (kochia (Kochia scoparia) [14]; 125 g ai/ha) was 0, the “Kochia plant response rating” value (kochia (Kochia scoparia) [14]; 500 g ai/ha) was 0 and the “Wheat plant response rating (0 to 100 scale)” value (“Wheat plant response rating” for short) ([15]; 125 g ai/ha) was 0. The “Wheat plant response rating” value ([15]; 500 g ai/ha) was 0, the “Pigweed plant response rating” value ([16]; 125 g ai/ha) was 0 and the “Pigweed plant response rating” value ([16]; 500 g ai/ha) was 0. For the same molecule, the “Corn plant response rating (0 to 100 scale)” value (“Corn plant response rating” below) (corn (Zea mays); 125 g ai/ha) was 0, the “Corn plant response rating” value (corn (Zea mays); 500 g ai/ha) was 0 and the “Ragweed plant response rating” value ([17]; 125 g ai/ha) was 0. For the same molecule, the “Ragweed plant response rating” value ([17]; 500 g ai/ha) was 0, the “Galium plant response rating (0 to 100 scale)” value (from here on “Galium plant response rating”) ([18]; 125 g ai/ha) was 0 and the “Galium plant response rating” value ([18]; 500 g ai/ha) was 20.
For Cc1nnc2n1CC(c1ccc(Cl)cc1)C2C(=O)Nc1cccc(F)c1F (centres unmarked) [Compound 5], the “Barnyardgrass plant response rating” value ([1]; 125 g ai/ha) was 30, the “Barnyardgrass plant response rating” value ([1]; 500 g ai/ha) was 80 and the “Ryegrass, Italian plant response rating” value ([2]; 125 g ai/ha) was 20. The “Ryegrass, Italian plant response rating” value ([2]; 500 g ai/ha) was 30, the “Foxtail, Giant plant response rating” value ([3]; 125 g ai/ha) was 50 and the “Foxtail, Giant plant response rating” value ([3]; 500 g ai/ha) was 90. The “Kochia plant response rating” value (kochia (Kochia scoparia) [4]; 125 g ai/ha) was 0, the “Kochia plant response rating” value (kochia (Kochia scoparia) [4]; 500 g ai/ha) was 50 and the “Pigweed plant response rating” value ([5]; 125 g ai/ha) was 0. For the same molecule, the “Pigweed plant response rating” value ([5]; 500 g ai/ha) was 0, the “Ragweed plant response rating” value ([6]; 125 g ai/ha) was 0 and the “Ragweed plant response rating” value ([6]; 500 g ai/ha) was 40. For the same molecule, the “Plant response rating, Flood, Barnyardgrass” value [7] was 40, the “Plant response rating, Flood, Sedge, Umbrella” value [8] was 0 and the “Plant response rating, Flood, Ducksalad” value [9] was 20. The “Plant response rating, Flood, Rice” value (rice (Oryza sativa)) was 0, the “Blackgrass plant response rating” value ([10]; 125 g ai/ha) was 0 and the “Blackgrass plant response rating” value ([10]; 500 g ai/ha) was 20. The “Barnyardgrass plant response rating” value ([11]; 125 g ai/ha) was 20, the “Barnyardgrass plant response rating” value ([11]; 500 g ai/ha) was 80 and the “Ryegrass, Italian plant response rating” value ([12]; 125 g ai/ha) was 0. The “Ryegrass, Italian plant response rating” value ([12]; 500 g ai/ha) was 20, the “Foxtail, Giant plant response rating” value ([13]; 125 g ai/ha) was 30 and the “Foxtail, Giant plant response rating” value ([13]; 500 g ai/ha) was 80. For the same molecule, the “Kochia plant response rating” value (kochia (Kochia scoparia) [14]; 125 g ai/ha) was 0, the “Kochia plant response rating” value (kochia (Kochia scoparia) [14]; 500 g ai/ha) was 30 and the “Wheat plant response rating” value ([15]; 125 g ai/ha) was 0. For the same molecule, the “Wheat plant response rating” value ([15]; 500 g ai/ha) was 20, the “Pigweed plant response rating” value ([16]; 125 g ai/ha) was 0 and the “Pigweed plant response rating” value ([16]; 500 g ai/ha) was 20. For the same molecule, the “Corn plant response rating” value (corn (Zea mays); 125 g ai/ha) was 20, the “Corn plant response rating” value (corn (Zea mays); 500 g ai/ha) was 30 and the “Ragweed plant response rating” value ([17]; 125 g ai/ha) was 0. For the same molecule, the “Ragweed plant response rating” value ([17]; 500 g ai/ha) was 20, the “Galium plant response rating” value ([18]; 125 g ai/ha) was 40 and the “Galium plant response rating” value ([18]; 500 g ai/ha) was 70.
O=C(Nc1ccccc1F)C1C2=NCC(=O)N2CC1c1cccc(C(F)(F)F)c1 (centres unmarked) [Compound 3, N-(2-fluorophenyl)-2,3,6,7-tetrahydro-3-oxo-6-[3-(trifluoromethyl)phenyl]-5H-pyrrolo[1,2-a]imidazole-7-carboxamide] was tested, and the “Barnyardgrass plant response rating” value ([1]; 125 g ai/ha) was 0, the “Barnyardgrass plant response rating” value ([1]; 500 g ai/ha) was 60 and the “Ryegrass, Italian plant response rating” value ([2]; 125 g ai/ha) was 0. For the same molecule, the “Ryegrass, Italian plant response rating” value ([2]; 500 g ai/ha) was 0, the “Foxtail, Giant plant response rating” value ([3]; 125 g ai/ha) was 0 and the “Foxtail, Giant plant response rating” value ([3]; 500 g ai/ha) was 80. For the same molecule, the “Kochia plant response rating” value (kochia (Kochia scoparia) [4]; 125 g ai/ha) was 0, the “Kochia plant response rating” value (kochia (Kochia scoparia) [4]; 500 g ai/ha) was 0 and the “Pigweed plant response rating” value ([5]; 125 g ai/ha) was 0. The “Pigweed plant response rating” value ([5]; 500 g ai/ha) was 0, the “Ragweed plant response rating” value ([6]; 125 g ai/ha) was 0 and the “Ragweed plant response rating” value ([6]; 500 g ai/ha) was 0. The “Blackgrass plant response rating” value ([10]; 125 g ai/ha) was 0, the “Blackgrass plant response rating” value ([10]; 500 g ai/ha) was 0 and the “Barnyardgrass plant response rating” value ([11]; 125 g ai/ha) was 0. For the same molecule, the “Barnyardgrass plant response rating” value ([11]; 500 g ai/ha) was 30, the “Ryegrass, Italian plant response rating” value ([12]; 125 g ai/ha) was 0 and the “Ryegrass, Italian plant response rating” value ([12]; 500 g ai/ha) was 10. The “Foxtail, Giant plant response rating” value ([13]; 125 g ai/ha) was 20, the “Foxtail, Giant plant response rating” value ([13]; 500 g ai/ha) was 50 and the “Kochia plant response rating” value (kochia (Kochia scoparia) [14]; 125 g ai/ha) was 0. The “Kochia plant response rating” value (kochia (Kochia scoparia) [14]; 500 g ai/ha) was 0, the “Wheat plant response rating” value ([15]; 125 g ai/ha) was 0 and the “Wheat plant response rating” value ([15]; 500 g ai/ha) was 0. For the same molecule, the “Pigweed plant response rating” value ([16]; 125 g ai/ha) was 0, the “Pigweed plant response rating” value ([16]; 500 g ai/ha) was 0 and the “Corn plant response rating” value (corn (Zea mays); 125 g ai/ha) was 0. The “Corn plant response rating” value (corn (Zea mays); 500 g ai/ha) was 0, the “Ragweed plant response rating” value ([17]; 125 g ai/ha) was 0 and the “Ragweed plant response rating” value ([17]; 500 g ai/ha) was 0. For the same molecule, the “Galium plant response rating” value ([18]; 125 g ai/ha) was 0 and the “Galium plant response rating” value ([18]; 500 g ai/ha) was 0.
